# Experiment: Stability of 10-nitro oleic acid (OA-NO2) in olive oil, quantified by LC-MS/MS
# Format: physicochemical
# Description: Stability experiments were conducted using Bertolli extra light olive oil. Methanol soluble impurities were extracted twice. […] Olive oil is highly hydrophobic and liposomes have been previously shown to stabilize nitrated linoleic acid. The composition of Olive oil used was as follows: total fat: 14 g, saturated fat: 9%, polyunsaturated fat: 9%, Monounsaturated Fat: 45%
# First, methanol-soluble substances were extracted from olive oil by applying 6 volumes of methanol per volume of oil and vortexing for a minute. The triglyceride containing fraction was obtained and the extraction was repeated. The remaining triglycerides were dried under vacuum to eliminate remaining organic solvents. […]
# At the different time points, aliquot by triplicate were obtained, fatty acids were extracted from the triglyceride matrix using a 4:1 ratio of methanol:triglyceride, diluted to a final concentration of 100 nM and quantified using liquid chromatography coupled to mass spectrometry. […] The nitrated oleic acid was detected using the multiple reaction monitoring (MRM) process in the negative ion mode performed on a 4000 QTRAP triple quadrupole (Applied Biosystems). […] The peak areas were integrated using Analyst 1.5.1 software (Applied Biosystems) and external standard curves were performed for quantification purposes.
smiles,measurement,setting,value
CCCCCCCC/C(=C\CCCCCCCC(=O)O)[N+](=O)[O-] [10-nitro oleic acid],stability in olive oil (percentage of the starting concentration),"750 μM in extracted Bertolli extra light olive oil, stored in the dark at 22° C., 37° C. and 50° C., periods of up to 20 days (FIG. 1: 19 days)",stable
same,decrease in stability after 135 days,"750 μM in olive oil, samples incubated at 22° C., 37° C., after 135 days",about 15%

# Source: patent US8937194B2, “Topical compositions containing nitro fatty acids” (Nitromega Corp., priority 2008, dated 2015)
